This note sets out measurements from ChEMBL document CHEMBL1201862, “PubChem BioAssay data set” (2004).

“Also recorded” adds a separate entry of the source. The source made the active and inactive calls. Where only a bound is given, the exact number is not on record here.

A short description of series [1]: insulin promoter down-regulators in MIN6 cells, imaging, high-content screening, mouse beta cells (AID 1628). In kind it is functional.
The nature of series [2]: cytotoxicity in MIN6 insulinoma cells, dose response, cytotoxicity control, cell-based, mouse insulinoma (AID 2122).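 Also: confirmatory high-throughput counterscreen run to flag cytotoxic compounds; mouse MIN-6 beta cells carrying an insulin promoter eGFP reporter.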 The class given is functional.
Series [3] can be described thus: growth suppression of PTEN-null colon cells, dose response, cell-based, HCT116 PTEN knockout (AID 1047).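 Also: HCT116 colon tumor cells with PTEN knocked out; cells exposed to compound for 60 hours before readout; potency for loss of cell viability measured by luminescence.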 The class given is functional.
The nature of series [4]: growth suppression of beta-catenin-knockout colon cells, dose response, cell-based, HCT116, human colon tumor (AID 1045).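 Also: HCT116 colon tumor cells with beta catenin knocked out; cells exposed to compound for 60 hours.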 In kind it is functional.
For series [5], the target named is Intestinal-type alkaline phosphatase (Mus musculus, UniProt P24822). In words: PubChem AID 488785. In kind it is functional.
Intestinal-type alkaline phosphatase (Mus musculus, UniProt P24822), sequence (P24822 whole entry): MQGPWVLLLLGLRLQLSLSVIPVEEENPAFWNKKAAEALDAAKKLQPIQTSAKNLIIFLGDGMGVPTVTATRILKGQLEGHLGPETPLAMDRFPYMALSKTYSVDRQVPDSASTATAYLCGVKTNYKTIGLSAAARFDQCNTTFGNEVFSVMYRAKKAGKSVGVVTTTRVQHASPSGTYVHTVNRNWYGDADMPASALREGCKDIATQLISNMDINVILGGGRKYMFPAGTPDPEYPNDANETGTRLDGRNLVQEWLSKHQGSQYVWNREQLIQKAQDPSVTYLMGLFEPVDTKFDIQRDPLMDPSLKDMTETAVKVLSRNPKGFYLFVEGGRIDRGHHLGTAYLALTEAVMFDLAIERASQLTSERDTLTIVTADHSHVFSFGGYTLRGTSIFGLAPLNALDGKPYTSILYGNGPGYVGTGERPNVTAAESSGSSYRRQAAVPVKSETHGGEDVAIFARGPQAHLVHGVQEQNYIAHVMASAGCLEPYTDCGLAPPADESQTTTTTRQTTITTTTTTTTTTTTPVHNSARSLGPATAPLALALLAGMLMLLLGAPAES
In series [6] the target is T1, Alkaline phosphatase, tissue-nonspecific isozyme (Homo sapiens, UniProt P05186).
T1 sequence (P05186 whole entry): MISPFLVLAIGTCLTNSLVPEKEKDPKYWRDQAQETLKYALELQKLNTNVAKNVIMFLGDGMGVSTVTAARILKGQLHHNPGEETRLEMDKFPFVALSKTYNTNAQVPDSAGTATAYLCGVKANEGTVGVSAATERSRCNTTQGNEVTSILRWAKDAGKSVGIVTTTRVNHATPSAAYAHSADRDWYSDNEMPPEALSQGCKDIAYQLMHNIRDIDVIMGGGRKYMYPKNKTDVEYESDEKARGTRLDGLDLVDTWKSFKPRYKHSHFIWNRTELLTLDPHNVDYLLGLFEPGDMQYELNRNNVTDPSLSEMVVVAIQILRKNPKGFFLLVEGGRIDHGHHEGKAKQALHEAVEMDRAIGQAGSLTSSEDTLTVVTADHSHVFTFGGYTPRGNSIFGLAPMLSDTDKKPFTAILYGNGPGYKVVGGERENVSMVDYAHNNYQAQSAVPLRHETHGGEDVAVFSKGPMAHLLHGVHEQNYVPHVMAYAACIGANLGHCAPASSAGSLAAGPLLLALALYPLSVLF
In words: TNAP enzyme inhibition by screening hits, dose response, selectivity assay for mouse IAP inhibitor project, biochemical, human TNAP, uHTS hits (AID 488906). In kind it is functional.

In series [7] the target is Intestinal-type alkaline phosphatase (Homo sapiens, UniProt P09923). As to the kind of experiment: inhibition of human intestinal alkaline phosphatase – biochemical, dose response (AID 488876). In kind it is functional.
Intestinal-type alkaline phosphatase (Homo sapiens, UniProt P09923), sequence (P09923 whole entry): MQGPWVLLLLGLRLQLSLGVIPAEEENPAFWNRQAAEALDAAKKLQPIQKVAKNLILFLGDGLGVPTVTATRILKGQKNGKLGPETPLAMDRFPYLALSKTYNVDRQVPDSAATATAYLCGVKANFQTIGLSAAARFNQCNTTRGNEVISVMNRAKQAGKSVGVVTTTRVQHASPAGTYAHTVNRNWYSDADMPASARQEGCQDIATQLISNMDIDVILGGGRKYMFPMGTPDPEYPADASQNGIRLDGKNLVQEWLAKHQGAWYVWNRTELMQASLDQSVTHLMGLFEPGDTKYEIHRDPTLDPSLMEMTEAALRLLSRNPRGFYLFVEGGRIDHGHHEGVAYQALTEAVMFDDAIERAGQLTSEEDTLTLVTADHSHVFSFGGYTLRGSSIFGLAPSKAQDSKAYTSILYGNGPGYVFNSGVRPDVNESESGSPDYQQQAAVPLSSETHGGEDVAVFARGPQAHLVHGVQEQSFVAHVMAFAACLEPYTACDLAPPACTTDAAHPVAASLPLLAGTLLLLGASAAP
For series [8], the target named is T2, Histone-lysine N-methyltransferase NSD2 (Homo sapiens, UniProt O96028).
T2 sequence (O96028 whole entry): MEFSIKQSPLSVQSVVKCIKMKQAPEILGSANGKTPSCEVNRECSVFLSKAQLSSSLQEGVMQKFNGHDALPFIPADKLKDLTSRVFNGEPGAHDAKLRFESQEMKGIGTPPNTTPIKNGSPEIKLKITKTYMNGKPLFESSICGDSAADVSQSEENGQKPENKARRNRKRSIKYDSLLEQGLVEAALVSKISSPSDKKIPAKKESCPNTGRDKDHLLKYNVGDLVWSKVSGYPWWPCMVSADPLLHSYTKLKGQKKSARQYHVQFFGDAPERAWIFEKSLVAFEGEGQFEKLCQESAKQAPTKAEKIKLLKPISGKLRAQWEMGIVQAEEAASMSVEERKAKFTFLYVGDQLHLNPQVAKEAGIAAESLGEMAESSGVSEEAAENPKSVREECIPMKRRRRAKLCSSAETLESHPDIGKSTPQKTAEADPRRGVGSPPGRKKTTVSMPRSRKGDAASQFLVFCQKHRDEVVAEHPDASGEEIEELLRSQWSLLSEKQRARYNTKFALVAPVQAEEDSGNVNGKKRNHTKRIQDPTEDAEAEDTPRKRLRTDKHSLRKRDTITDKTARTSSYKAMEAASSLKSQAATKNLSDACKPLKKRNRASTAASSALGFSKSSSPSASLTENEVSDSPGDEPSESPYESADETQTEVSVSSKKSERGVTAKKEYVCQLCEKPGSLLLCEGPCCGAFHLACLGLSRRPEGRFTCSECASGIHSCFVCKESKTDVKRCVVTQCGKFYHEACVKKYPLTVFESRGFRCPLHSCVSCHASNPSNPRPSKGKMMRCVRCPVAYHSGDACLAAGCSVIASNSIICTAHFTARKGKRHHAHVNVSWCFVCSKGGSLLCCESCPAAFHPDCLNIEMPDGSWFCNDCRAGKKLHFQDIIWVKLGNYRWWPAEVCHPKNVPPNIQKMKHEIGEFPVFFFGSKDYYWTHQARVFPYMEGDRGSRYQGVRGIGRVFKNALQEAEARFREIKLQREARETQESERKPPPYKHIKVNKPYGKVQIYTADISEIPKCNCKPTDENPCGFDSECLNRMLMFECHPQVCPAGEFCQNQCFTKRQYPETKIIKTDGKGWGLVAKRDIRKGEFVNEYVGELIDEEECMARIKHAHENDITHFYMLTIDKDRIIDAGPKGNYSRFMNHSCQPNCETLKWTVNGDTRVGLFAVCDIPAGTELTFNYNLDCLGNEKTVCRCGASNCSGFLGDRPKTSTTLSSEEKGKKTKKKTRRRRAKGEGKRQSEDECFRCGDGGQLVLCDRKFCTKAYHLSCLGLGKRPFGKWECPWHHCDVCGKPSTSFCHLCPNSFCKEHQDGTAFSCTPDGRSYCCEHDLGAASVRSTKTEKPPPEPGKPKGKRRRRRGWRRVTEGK
In kind it is biochemical.

The nature of series [9]: THP-1 cell cytotoxicity, dose response, cytotoxicity control for Vif-APOBEC3G degradation inhibitor project, THP-1 cells (AID 1117359). In kind it is functional. To be noted: Human immunodeficiency virus 1, THP-1.
Series [10] is described as follows: inhibitors of Vif binding to APOBEC3G peptide, primary screen, biochemical, TR-FRET, GST-Vif 1-94, biotin-A3G peptide, dose response retest (AID 1117319).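 Also: inhibitors lower the FRET signal by blocking Vif and A3G binding.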 In kind it is functional. (In TR-FRET formats the signal depends on donor and acceptor labels being close together.)
The nature of series [11]: Vero cell cytotoxicity, dose response, cytotoxicity control for Vif-APOBEC3G degradation inhibitor project, Vero cells (AID 1117358). To be noted: Human immunodeficiency virus 1, Vero. In kind it is functional.
The nature of series [12]: inhibitors of cytokine-induced nitrite release, dose response, cell-based, Griess absorbance, INS-1E, dry powder, set 3 (AID 488870). The class given is functional. To be noted: Rattus norvegicus.
The target of series [13] is T3, Apoptotic protease-activating factor 1 (Homo sapiens, UniProt O14727).
T3 sequence (O14727 whole entry): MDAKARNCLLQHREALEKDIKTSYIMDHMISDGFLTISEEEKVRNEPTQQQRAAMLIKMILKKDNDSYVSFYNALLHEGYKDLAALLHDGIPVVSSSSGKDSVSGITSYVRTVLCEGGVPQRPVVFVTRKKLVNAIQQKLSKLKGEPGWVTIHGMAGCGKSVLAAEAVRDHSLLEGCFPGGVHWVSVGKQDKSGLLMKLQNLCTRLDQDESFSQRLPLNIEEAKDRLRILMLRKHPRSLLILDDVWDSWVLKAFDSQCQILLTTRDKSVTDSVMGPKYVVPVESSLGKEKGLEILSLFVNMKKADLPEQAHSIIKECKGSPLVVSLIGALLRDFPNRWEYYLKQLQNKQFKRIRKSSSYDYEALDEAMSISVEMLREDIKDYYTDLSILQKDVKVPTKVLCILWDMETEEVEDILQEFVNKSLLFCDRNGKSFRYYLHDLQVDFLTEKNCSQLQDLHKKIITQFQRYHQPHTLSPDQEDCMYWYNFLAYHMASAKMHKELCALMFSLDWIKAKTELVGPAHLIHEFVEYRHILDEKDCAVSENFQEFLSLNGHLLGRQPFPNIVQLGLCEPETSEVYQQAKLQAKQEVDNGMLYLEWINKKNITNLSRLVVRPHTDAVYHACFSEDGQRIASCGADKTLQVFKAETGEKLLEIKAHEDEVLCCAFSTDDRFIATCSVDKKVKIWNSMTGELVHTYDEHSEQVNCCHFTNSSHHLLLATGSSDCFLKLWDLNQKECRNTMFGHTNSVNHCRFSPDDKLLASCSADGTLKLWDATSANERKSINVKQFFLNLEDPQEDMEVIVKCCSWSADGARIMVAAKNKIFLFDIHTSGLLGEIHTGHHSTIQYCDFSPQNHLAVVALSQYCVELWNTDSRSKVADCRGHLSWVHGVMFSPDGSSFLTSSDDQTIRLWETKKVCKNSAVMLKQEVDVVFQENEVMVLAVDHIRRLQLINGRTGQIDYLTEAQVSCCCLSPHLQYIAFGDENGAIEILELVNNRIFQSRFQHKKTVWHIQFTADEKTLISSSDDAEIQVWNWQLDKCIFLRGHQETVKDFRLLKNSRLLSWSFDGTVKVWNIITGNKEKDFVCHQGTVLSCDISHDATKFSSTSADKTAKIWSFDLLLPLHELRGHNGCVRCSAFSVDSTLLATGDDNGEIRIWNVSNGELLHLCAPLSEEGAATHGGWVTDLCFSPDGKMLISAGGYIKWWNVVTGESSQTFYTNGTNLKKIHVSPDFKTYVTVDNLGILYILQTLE
As to the kind of experiment: activation of Apaf-1 mediated apoptosis – fluorescent, uHTS hits, dose response (AID 588554). In kind it is functional.

Series [14] has as its target T4, Small ubiquitin-related modifier 1 (Homo sapiens, UniProt P63165). In words: inhibitors of SUMO1 peptide binding, dose response, biochemical, fluorescence polarization, uHTS hits (AID 624382). The class given is functional. To be noted: read-out: IC50_Mean. (In general: In fluorescence polarisation assays a small probe gives low polarisation when free and higher when bound to something large.)

Series [15] has as its target T4, Small ubiquitin-related modifier 1. As to the kind of experiment: inhibitors of SUMO1 partner interactions, dose response, biochemical, FRET (AID 624383). In kind it is functional. To be noted: read-out: IC50_Mean.
Series [16] concerns the target NAD-dependent protein deacylase sirtuin-5, mitochondrial (Homo sapiens, UniProt Q9NXA8). As to the kind of experiment: SIRT5 desuccinylase inhibitors, dose response, biochemical, fluorescence imaging, cherry-pick, set 5 (AID 720591).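 Also: desuccinylation of succinyl peptide AMC substrate read as fluorescence after trypsin release; potency of inhibitors that lower fluorescence and may act on trypsin instead.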
For series [17], the target named is 1-phosphatidylinositol 4,5-bisphosphate phosphodiesterase gamma-1 (Homo sapiens, UniProt P19174). As to the kind of experiment: Counterscreen for inhibitors of phospholipase C isozymes (PLC-B3): Fluorescence-based biochemical high throughput dose response assay to identify inhibitors of phospholipase C isozymes (PLC-gamma1). In general terms: Counterscreens check selectivity or assay interference.
1-phosphatidylinositol 4,5-bisphosphate phosphodiesterase gamma-1, sequence (P19174 whole entry): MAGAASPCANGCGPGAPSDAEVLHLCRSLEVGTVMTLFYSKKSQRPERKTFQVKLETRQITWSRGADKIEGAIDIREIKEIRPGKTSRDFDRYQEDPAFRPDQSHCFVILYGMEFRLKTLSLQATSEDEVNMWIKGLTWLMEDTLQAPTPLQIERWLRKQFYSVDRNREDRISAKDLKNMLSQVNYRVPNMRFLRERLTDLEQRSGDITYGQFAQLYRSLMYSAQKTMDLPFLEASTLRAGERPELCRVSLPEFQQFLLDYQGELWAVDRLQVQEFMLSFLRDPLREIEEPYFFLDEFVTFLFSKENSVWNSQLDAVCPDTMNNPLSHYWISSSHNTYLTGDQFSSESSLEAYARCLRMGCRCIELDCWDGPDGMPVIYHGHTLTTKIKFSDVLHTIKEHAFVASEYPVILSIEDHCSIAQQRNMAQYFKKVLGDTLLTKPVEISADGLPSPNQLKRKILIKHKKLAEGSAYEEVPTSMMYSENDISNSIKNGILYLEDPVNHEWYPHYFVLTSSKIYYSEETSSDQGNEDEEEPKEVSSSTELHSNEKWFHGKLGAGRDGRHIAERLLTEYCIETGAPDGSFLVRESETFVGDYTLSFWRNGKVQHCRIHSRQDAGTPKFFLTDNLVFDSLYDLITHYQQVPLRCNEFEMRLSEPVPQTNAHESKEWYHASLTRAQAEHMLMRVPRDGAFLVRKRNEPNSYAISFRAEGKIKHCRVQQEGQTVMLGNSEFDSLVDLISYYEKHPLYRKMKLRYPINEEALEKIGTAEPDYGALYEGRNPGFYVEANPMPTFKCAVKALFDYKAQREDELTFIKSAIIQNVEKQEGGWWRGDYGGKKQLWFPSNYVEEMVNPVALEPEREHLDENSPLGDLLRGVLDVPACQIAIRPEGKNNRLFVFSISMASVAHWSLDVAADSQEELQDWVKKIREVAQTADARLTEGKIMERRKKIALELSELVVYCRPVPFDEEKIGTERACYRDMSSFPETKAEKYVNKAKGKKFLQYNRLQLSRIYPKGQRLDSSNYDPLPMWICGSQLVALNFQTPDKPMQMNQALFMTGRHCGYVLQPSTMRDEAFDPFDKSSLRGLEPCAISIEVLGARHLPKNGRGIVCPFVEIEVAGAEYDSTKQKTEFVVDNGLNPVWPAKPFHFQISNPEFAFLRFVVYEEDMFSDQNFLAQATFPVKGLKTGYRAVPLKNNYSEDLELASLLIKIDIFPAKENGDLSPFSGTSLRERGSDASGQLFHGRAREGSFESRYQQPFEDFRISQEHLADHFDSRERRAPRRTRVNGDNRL

The target of series [18] is 1-phosphatidylinositol 4,5-bisphosphate phosphodiesterase beta-3 (Homo sapiens, UniProt Q01970). In words: Fluorescence-based biochemical high throughput dose response assay to identify inhibitors of phospholipase C isozymes (PLC-B3).
1-phosphatidylinositol 4,5-bisphosphate phosphodiesterase beta-3, sequence (Q01970 whole entry): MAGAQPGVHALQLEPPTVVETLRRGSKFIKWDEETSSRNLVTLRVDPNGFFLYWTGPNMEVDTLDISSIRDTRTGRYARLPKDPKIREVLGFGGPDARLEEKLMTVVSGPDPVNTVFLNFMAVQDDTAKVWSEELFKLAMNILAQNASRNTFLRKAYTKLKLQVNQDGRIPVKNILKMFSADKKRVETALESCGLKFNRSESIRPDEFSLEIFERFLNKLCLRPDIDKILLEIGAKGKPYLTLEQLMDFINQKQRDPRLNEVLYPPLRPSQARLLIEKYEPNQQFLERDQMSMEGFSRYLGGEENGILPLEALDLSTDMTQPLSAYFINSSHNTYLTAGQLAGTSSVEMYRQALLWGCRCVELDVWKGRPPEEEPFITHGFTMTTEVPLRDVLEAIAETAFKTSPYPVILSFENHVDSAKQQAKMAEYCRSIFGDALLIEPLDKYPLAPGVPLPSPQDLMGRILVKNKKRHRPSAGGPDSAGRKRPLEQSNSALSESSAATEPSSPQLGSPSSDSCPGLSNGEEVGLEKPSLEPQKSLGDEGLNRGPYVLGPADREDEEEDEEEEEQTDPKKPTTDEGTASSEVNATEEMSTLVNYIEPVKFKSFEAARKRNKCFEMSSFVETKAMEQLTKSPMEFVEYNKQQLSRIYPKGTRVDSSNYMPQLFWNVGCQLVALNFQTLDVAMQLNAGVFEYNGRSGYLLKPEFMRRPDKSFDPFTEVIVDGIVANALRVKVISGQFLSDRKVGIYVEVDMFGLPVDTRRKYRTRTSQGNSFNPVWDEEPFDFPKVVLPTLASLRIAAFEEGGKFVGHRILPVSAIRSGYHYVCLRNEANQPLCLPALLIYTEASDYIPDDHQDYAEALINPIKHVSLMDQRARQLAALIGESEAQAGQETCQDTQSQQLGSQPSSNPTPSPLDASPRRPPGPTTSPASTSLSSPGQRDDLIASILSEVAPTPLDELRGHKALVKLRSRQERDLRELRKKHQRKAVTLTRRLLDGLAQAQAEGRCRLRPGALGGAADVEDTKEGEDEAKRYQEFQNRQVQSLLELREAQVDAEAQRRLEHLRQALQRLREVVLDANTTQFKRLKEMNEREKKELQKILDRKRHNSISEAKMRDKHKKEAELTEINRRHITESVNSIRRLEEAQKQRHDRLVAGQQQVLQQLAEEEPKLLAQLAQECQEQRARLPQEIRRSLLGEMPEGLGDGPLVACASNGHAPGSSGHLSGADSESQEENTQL
Series [19] concerns the target Cytochrome P450 2C19 (Homo sapiens, UniProt P33261). In words: Cytochrome panel assay with activity outcomes. Panel member name: p450-cyp2c19 Compounds with AC50 equal or less than 10 uM are considered active. In kind it is functional.
Series [20] deals with Cytochrome P450 2D6 (Homo sapiens, UniProt P10635).
Cytochrome P450 2D6, sequence (P10635 whole entry): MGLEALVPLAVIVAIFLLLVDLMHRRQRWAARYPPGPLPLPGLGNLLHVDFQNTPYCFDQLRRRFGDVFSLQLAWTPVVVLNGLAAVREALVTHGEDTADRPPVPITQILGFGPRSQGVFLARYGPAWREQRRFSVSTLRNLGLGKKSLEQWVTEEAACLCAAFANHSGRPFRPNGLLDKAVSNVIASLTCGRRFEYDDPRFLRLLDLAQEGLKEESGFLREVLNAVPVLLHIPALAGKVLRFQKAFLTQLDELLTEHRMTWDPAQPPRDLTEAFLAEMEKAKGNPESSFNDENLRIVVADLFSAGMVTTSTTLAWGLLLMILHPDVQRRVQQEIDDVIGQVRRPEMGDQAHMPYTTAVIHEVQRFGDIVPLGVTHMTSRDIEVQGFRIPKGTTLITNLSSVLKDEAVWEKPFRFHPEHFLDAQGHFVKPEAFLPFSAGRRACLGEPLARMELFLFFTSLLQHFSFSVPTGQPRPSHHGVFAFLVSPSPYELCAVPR
The target in series [21] is T5, Cytochrome P450 1A2 (Homo sapiens, UniProt P05177).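 Also: PubChem cytochrome P450 panel assay, CYP1A2 panel member.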
T5 sequence (P05177 whole entry): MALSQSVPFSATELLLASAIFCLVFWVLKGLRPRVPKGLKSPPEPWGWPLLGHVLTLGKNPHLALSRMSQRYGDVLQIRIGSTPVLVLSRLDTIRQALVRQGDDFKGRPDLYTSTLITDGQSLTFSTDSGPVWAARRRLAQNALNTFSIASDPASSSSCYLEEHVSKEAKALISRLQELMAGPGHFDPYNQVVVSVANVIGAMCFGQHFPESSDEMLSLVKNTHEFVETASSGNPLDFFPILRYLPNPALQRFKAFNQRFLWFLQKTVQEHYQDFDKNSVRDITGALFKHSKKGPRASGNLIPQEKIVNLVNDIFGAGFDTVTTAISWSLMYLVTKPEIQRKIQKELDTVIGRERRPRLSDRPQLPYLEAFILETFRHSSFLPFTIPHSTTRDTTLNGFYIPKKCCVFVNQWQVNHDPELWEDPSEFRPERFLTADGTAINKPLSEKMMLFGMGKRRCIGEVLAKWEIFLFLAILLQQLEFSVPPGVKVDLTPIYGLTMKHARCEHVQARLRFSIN

Cytochrome P450 2C19, sequence (P33261 whole entry): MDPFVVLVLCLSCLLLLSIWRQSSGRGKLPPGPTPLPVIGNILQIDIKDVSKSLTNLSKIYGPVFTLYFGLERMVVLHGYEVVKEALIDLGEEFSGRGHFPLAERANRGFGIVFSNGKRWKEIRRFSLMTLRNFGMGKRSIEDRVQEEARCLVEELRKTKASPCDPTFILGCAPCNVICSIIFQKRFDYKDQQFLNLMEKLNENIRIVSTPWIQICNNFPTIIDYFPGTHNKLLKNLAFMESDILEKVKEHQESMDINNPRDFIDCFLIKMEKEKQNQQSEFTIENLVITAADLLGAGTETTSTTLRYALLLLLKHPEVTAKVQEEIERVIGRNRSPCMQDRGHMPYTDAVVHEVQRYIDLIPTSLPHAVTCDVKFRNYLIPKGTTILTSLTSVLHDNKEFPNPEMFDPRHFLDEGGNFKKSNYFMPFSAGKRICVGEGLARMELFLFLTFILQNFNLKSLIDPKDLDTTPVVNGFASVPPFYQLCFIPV
T4 sequence (P63165 whole entry): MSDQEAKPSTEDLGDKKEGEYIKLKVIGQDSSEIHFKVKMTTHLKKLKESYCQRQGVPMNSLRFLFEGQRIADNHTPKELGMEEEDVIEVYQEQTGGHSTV
NAD-dependent protein deacylase sirtuin-5, mitochondrial, sequence (Q9NXA8 whole entry): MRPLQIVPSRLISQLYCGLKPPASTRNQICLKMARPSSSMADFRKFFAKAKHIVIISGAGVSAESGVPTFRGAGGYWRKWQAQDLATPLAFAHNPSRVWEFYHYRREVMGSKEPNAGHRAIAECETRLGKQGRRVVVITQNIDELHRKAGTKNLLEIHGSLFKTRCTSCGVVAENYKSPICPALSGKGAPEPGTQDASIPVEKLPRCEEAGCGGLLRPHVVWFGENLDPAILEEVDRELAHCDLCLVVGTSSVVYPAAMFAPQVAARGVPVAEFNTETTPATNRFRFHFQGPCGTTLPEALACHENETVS

What is called EC50 is the concentration needed to bring the measured effect to its halfway point. As usually defined, the AC50 is the midpoint of the concentration-response curve, whichever way the signal moves. What is called CC50 is the concentration that lowers cell viability or growth by half. For the compound `Cc1cccnc1Nc1nc(-c2ccc(O)c(O)c2)cs1`, the IC50 in [1] is 8.95 µM (active); in series [2] it was 9.5 µM (active); in [5], 4.03 µM (active); in [6], > 100 µM (inactive); in series [7], > 100 µM (inactive); in [10], > 51.1 µM (active). The EC50 in [3] is 13.3 µM (active); in series [4], 13.6 µM (active). For the same compound, the AC50 in series [8] was > 20 µM (inactive). Besides, the CC50 in series [9] is 21.2 µM (active); in series [11], > 40 µM (active).
For the compound `C[C@@H]1CN([C@@H](C)CO)C(=O)c2cccc(NC(=O)Nc3cccc4ccccc34)c2O[C@H]1CN(C)C(=O)Nc1ccc(C(F)(F)F)cc1`, the AC50 in series [12] is 40.7 µM (active).
As to `C=CC1=C(C(=O)O)N2C(=O)[C@@H](NC(=O)/C(=N\OCC(=O)O)c3csc(N)n3)[C@H]2SC1` [CEFIXIME], in [13], the EC50 was 9.08 µM (active). In addition, the IC50 in series [14] is > 66.6 µM (inactive); in series [15], 1.48 µM (active); in series [17] it was 1.21 µM (active); in series [18], > 122 µM (inactive). Also, the AC50 in [16] was 17.9 µM (active).
In the case of `Nc1ccc(S(=O)(=O)Nc2ccnn2-c2ccccc2)cc1` [SULFAPHENAZOLE], the AC50 entry in [19] is “inactive; also recorded: inconclusive”; in series [20] it was “inactive”; in series [21], “inactive”.
